One molecule from PMC11304236, “A Novel Drug Candidate for Sepsis Targeting Heparanase by Inhibiting Cytokine Storm” (Advanced Science, 2024) can be followed below.

The test system of one experiment is LPS-induced septic mice. Kind of experiment: Treadmill vitality test of LPS-induced septic mice. To be noted: LPS-treated mice. Format: in vivo, mouse. An excerpt: To further assess the protective effect of CV122 in LPS‐induced septic mice, we assessed the vitality of the mice with or without CV122 treatment by treadmill (Figure 2I).
The next experiment deals with lung tissue glycocalyx. The experiment in a line: Cell surface glycocalyx in lung tissue of LPS-induced septic mice (WGA-FITC, lanthanum nitrate TEM). Format: in vivo, mouse. The method, then: (§1) Lungs were harvested from LPS‐induced and CLP‐induced sepsis model mice, and frozen sections were prepared. HUVECs and RAW264.7 macrophages were incubated with CV122 for 3 h, and TNF‐α (20 ng mL^−1) and LPS (5 µg mL^−1) were used to stimulate cells for 1 h. Lung tissue, HUVECs, and RAW264.7 macrophages were fixed with 4% paraformaldehyde for 10 min before permeabilization with 0.5% Triton X‐100 for 10 min. The membrane was sealed with 4% skimmed milk powder and incubated at room temperature for 50 min. Primary antibodies were rabbit anti‐heparanase polyclonal antibodies overnight at 4 °C. The diluent of the secondary antibody FITC‐WGA‐lectin was kept at room temperature and protected from light for 1 h. Nuclei were stained with DAPI. After 120 s, images were acquired with a confocal microscope (LSM 800, Zeiss, Germany).
The endothelial glycocalyx was detected by electron microscopy. Mice were dissected and a needle was inserted into the left ventricle of the heart and perfused with lanthanum aldehyde, a solution consisting of 2% glutaraldehyde, 2% sucrose, 0.1 M sodium […] buffer (pH 7.3), and 2% lanthanum nitrate. Lanthanum was a trivalent cation that binds polysaccharide‐protein complexes with negatively charged glycoprotein parts.^[ [46] ^] The organs were cut into 1 mm^3 pieces and then the samples were fixed in lanthanide aldehyde fixative. […]

A further experiment deals with HPA. The experiment in a line: HPA expression in tissues of LPS-induced septic mice (IHC, immunofluorescence, immunoblotting). Format: in vivo, mouse. To be noted: 24 h after LPS injection. As to the method:
as §1
The lung, kidney, and liver tissues of mice were fixed in paraformaldehyde. Sections underwent endogenous peroxidase quenching and antigen retrieval followed by incubation with primary antibodies or isotype‐matched controls. […]
CV122 (50 µM) was incubated with HUVECs and RAW264.7 cells for 3 h, and LPS (5 µg mL^−1) and TNF‐α (20 ng mL^−1) were incubated for 1 h. […] The BCA method was used to quantify protein. […] Blots were developed with a chemiluminescent HRP substrate, and the protein bands were detected with a chemiluminescence imager (MiniChemi610).

In a further experiment the test system is HUVECs. Kind of experiment: Cell surface glycocalyx of TNF-α-stimulated HUVECs (WGA-FITC, atomic force microscopy). Format: cell-based, human. As to the method:
as §1
(§2) HUVECs and RAW264.7 cells in the logarithmic growth phase were digested, centrifuged, and then plated in a six‐well plate at a density of 1 × 10[5] cells per well. CV122 was incubated for 3 h, and cells were stimulated with LPS (5 µg mL^−1) and TNF‐α (20 ng mL^−1) for 5 h. Cell‐covered slides were carefully removed and placed on the stage of the atomic force microscope with needle parameters: elastic coefficient 0.4 N M^−1, sensitivity 65.63 nm V^−1, with otherwise the usual atomic force microscope (Bruker, Billerica, MA) parameters used.

The test system of a further experiment is RAW264.7 macrophages. Kind of experiment: Cell surface glycocalyx of LPS-stimulated RAW264.7 macrophages (WGA-FITC, atomic force microscopy). Format: cell-based, mouse. As to the method: as §1, §2
Experiment [1] relates to splenocytes and lymph node cells. Kind of experiment: Flow cytometry of splenocyte apoptosis and T/B cells in LPS-induced septic mice. To be noted: 24 h after LPS. Format: in vivo, mouse. As to the method: (§3) Each group of mice was euthanized 24 h after LPS injection, spleens were harvested, red blood cells were lysed to detect splenocyte apoptosis, and the ratio of CD3^+CD4^+ T cells, CD3^+CD8^+ T cells, CD3^−CD19^+ B cells in spleen cells and lymph nodes quantified. Antibodies were: FITC‐Annexin V and PI; APC‐CD3, FITC‐CD4, PE‐CD8a, and PE‐CD19. Each group of mice was euthanized 12 h after LPS injection, Lung, kidney, and spleens were harvested, red blood cells were lysed to detect the ratio of macrophages in multiple organs, Antibodies were: FITC anti‐mouse F4/80; APC anti‐mouse CD86. Flow cytometry was used to quantify the adhesion molecules ICAM‐1 and VCAM‐1 on the surface of RAW264.7 cells and HUVECs. CV122 (50 µM) was incubated with the cells for 3 h, LPS (5 µg mL^−1) and TNF‐α (20 ng mL^−1) were used to stimulate the cells for 1 h, and the cells were collected. FITC anti‐mouse CD54 antibody and AF647 anti‐mouse CD106 antibody were incubated for 30 min at room temperature in the dark, PBS was added at 1000 rpm, and the cells were centrifuged for 7 min. A 200‐mesh copper mesh was used to filter the cells into a flow cytometer, and a flow cytometer (BD Biosciences) was used for detection.

The subject of another experiment is ICAM-1 and VCAM-1. The experiment in a line: ICAM-1 and VCAM-1 on LPS-stimulated RAW264.7 macrophages by flow cytometry. Format: cell-based, mouse. To be noted: CV122 50 µM 3 h, LPS 5 µg mL−1 1 h. The method, then:
as §3
Background: In flow cytometry, cells or beads pass a laser one at a time.

The test system of the next experiment is TNF-α, IL-6, IL-1β. The experiment in a line: Cytokine ELISA in serum and organs of LPS-induced septic mice. Format: in vivo, mouse. As to the method:
For LPS‐induced sepsis model experiments, twenty male C57BL/6J mice were randomly divided into four groups (n = 5 in each group). Mice in group 1 were injected with 0.9% NaCl, while mice in groups 2–4 were injected intraperitoneally with LPS (20 mg kg^−1). After 30 min, mice in group 3 were injected with 40 mg kg^−1 CV122 and mice in group 4 were injected with 40 mg kg^−1 Suramin. After 3 h, blood was taken and the lungs, liver, spleen, kidney heart, and brain were taken. For CLP experiments, the mice were euthanized 24 h after the establishment of the sepsis model. Blood samples were collected from the eyeballs of mice, the lungs were taken. These organs were ground at 0.1 g mL^−1 in PBS, centrifuged and the supernatant collected. Serum and organ tissue supernatants were used to detect cytokine levels using the mouse TNF‐α, IL‐6, IL‐1β ELISA MAXTM Deluxe Set.
A general note: An ELISA detects its analyte on a solid surface through an enzyme-linked reagent.

As for `COC1OC(COS(=O)(=O)O)C(OC2OC(C(=O)O)C(OC3OC(COS(=O)(=O)O)C(OC4OC(C(=O)O)C(OC5OC(COS(=O)(=O)O)C(O)C(O)C5NS(=O)(=O)O)C(OS(=O)(=O)O)C4O)C(OS(=O)(=O)O)C3NS(=O)(=O)O)C(O)C2OS(=O)(=O)O)C(O)C1NS(=O)(=O)O` (centres unmarked) [CV122], in the experiment on LPS-induced septic mice, the “electric shocks needed in the first 100 m” value is “reduced the electric shocks needed in the first 100 m”; the “running distance and time to exhaustion” value is “significantly increased the running distance and extended the time to exhaustion”; the “total electric shocks until exhaustion” value is “obviously increased the total electric shocks until exhaustion”. In the experiment on lung tissue glycocalyx, the “cell surface glycocalyx in lung tissue by WGA-FITC” value is “integrity of the glycocalyx was rescued” and the “lanthanum nitrate staining of lung vascular endothelial glycocalyx (TEM)” value is recorded as “significantly restored lanthanum nitrate staining”. The “HPA overexpression in the lungs” value with HPA is reported as “significantly reduced the HPA overexpression”. Besides, in the experiment with HUVECs, the “glycocalyx integrity by WGA-FITC fluorescence” value was “rescued glycocalyx integrity”; the “glycocalyx structure / surface roughness by atomic force microscopy” value was “reduced glycocalyx damage and resulted in a smoother surface”. In the experiment with RAW264.7 macrophages, the “glycocalyx by WGA-FITC fluorescence” value is “significantly protected the glycocalyx of macrophages” and the “glycocalyx structure by atomic force microscopy” value was “protected against disruption of the glycocalyx structure”. Also, in experiment [1], the “CD3+CD4+ T cells and CD3+CD8+ T cells in spleen” value is recorded as “recovered by CV122 to close to control levels”; the “CD3−CD19+ B cells in spleen and inguinal lymph nodes” value is “recovered upon treatment with CV122”; the “splenocyte apoptosis (FITC-Annexin V and PI)” value is “significantly reduced apoptosis”. The “ICAM-1 and VCAM-1 expression” value in the experiment with ICAM-1 and VCAM-1 is “reversed after CV122 treatment”. Besides, the “TNF-α, IL-6 and IL-1β levels in serum and lungs” value in the experiment with TNF-α, IL-6, IL-1β (40 mg kg−1, 30 min after LPS 20 mg kg−1 i.p., 3 h after LPS, vs LPS group) is given as “significantly suppressed”. The “TNF-α, IL-6 and IL-1β in tissue extracts of brains, hearts, livers, kidneys and spleens” value with TNF-α, IL-6, IL-1β (40 mg kg−1, 3 h after LPS) is reported as “significantly inhibited the secretion of proinflammatory cytokines in these organs to a greater extent than Suramin”. For the same molecule, in the experiment with TNF-α, IL-6, IL-1β (candidate screening in LPS-induced septic mouse model (Figure 1C,D)), the “TNF-α levels in serum” value is listed as “significantly decreasing”.
